According to the NIST ThermoML archive (doi:10.1016/j.jct.2016.02.017):
± gives the expanded uncertainty stated by the source.

Experiment: Boiling temperature at pressure P
Conditions: Liquid, Ebulliometric method (Recirculating still)

## O [water]
12.1 kPa
  Boiling temperature at pressure P: 50.7 ± 4 °C
25.8 kPa
  Boiling temperature at pressure P: 67.2 ± 4 °C
41.8 kPa
  Boiling temperature at pressure P: 78.7 ± 4 °C
59.7 kPa
  Boiling temperature at pressure P: 85.5 ± 4 °C
74.1 kPa
  Boiling temperature at pressure P: 91.2 ± 4 °C
91.8 kPa
  Boiling temperature at pressure P: 97.7 ± 4 °C
